Marks after values point to notes of the source that are not given here.

The first assay relates to human neutrophils. As to the kind of experiment: Chemorepulsion (negative chemotaxis) of neutrophils in Neuroprobe ChemoTx plates, migrated cells quantified with Cell Titer Glo. It counts as cell-based. Conditions: 0.048, 0.48, 4.8 or 48 uM; FIGS. 1A, 1B and 1C. As for the experimental part:
Prior to beginning the assay, the following were prepared: • a. 0.5% Fetal Calf Serum (FCS) in Iscove's Modified Dulbecco's Medium (IMDM) (Assay Medium) (Both from ATCC). • b. Migratory cells at a concentration of 2×10^7 cells/ml in Assay Medium. • c. Four serial (10-fold) dilutions of the ligand of interest in Assay Medium. All stocks were diluted initially 1:100 into Assay Medium and subsequently made into 10 fold dilutions (100 uM, 10 uM, 1 uM, 0.1 uM). […] The same dilutions were followed. • 2. […] The plates were removed from packaging, leaving the membrane behind. • 4. 31 μl of the following solutions were pipetted into each well: • a. For media controls and for chemorepulsion samples, Assay Medium was used. • b. For chemoattraction samples, appropriate dilution of ligand was used. • 5. A sterile needle was used to pop any and all small bubbles present in each well. • 6. The membrane was carefully placed onto the plate, starting at one side and then slowly lowering the other edge onto the plate. • 7. 29 μl of the following were pipetted onto the top of each circle: • a. For media controls and chemoattraction samples, use Assay Medium. • b. For chemorepulsion samples, use the appropriate dilution of ligand. • 8. 2 μl of cells (40,000 cells) were added to each bubble of liquid from step 7. • 9. A needle was used to pop all air bubbles. • 10. The plate was covered with the supplied lid and incubated for the desired time at 37° C. in 5% CO2. Unless otherwise indicated, the incubation time was 1 hour for neutrophils and 3 hours for T cells. For monocytes and B cells, the incubation time was 2 hours. • 11. After the desired assay time, the liquid was removed from the top of the plate using a Kimwipe. At this point, the plate was stored (with the membrane in place) for up to 2 hours at 4° C. • 12. The membrane was carefully removed from the top of the plate and discard. The plate was examined under a microscope to look for ligand crystallization, contamination and overall migration. • 13. White read plates were preloaded with 25 ul PBS. • 14. Using a multichannel pipettor, 5 ul of Cell Titer Glo (Promega # G7572) was added to each well. • 15. Using a multichannel pipettor set at 30 ul, lysed cell solution was transferred to white read plates pre-loaded with PBS. • 16. The plate was read using the BioTek Synergy4 plate reader in order to quantify the number of migrated cells.
Compounds from the chemical analog library were screened once in CR mode as described.
In general terms: In ATP-based viability assays light output follows the ATP content of the culture.
Turning to `COc1ccc2nc([S@@+]([O-])Cc3ncc(C)c(OC)c3C)[nH]c2c1` [esomeprazole, reference compound], the “chemorepulsion of neutrophils in response to the compound” value is reported as “showed chemorepulsion”.

The assay is the same for the next values; noted with them: neutrophils, four 10-fold dilutions.
With `COc1ccc2nc([S@@+]([O-])Cc3ncc(C)c(OC)c3C)[nH]c2c1` [esomeprazole, reference compound], the “dose dependence of the induction of chemotaxis / chemorepulsion” value is reported as “dose-dependent”.

The same assay, now with this note: neutrophils, methods of Example 1.
For `COc1ccc2[nH]c(SCc3ccc(Cl)cc3)nc2c1` [Compound 11], the “chemorepulsion class mark in Tables 1-4” value was 11* (Compounds that showed chemorepulsion that was at least 3-fold greater than media). Consider `O=C(CSc1nc2cc([N+](=O)[O-])ccc2[nH]1)Nc1ccccc1F` [Compound 12], for which the “chemorepulsion class mark in Tables 1-4” value is 12* (Compounds that showed chemorepulsion that was at least 3-fold greater than media). For the compound `COc1ccc2[nH]c(SCC(=O)NCc3ccccc3)nc2c1` [Compound 15], the “chemorepulsion class mark in Tables 1-4” value is listed as 15* (Compounds that showed chemorepulsion that was at least 3-fold greater than media). On the same count and under the same terms, the same measure for `COc1ccc2[nH]c(SCC(=O)Nc3ccccc3F)nc2c1` [Compound 16]: 16* (Compounds that showed chemorepulsion that was at least 3-fold greater than media). `COc1ccc2[nH]c(SCC(=O)Nc3nc4ccc(OC)cc4s3)nc2c1` [Compound 17]: the “chemorepulsion class mark in Tables 1-4” value is 17* (Compounds that showed chemorepulsion that was at least 3-fold greater than media). For `COc1ccc2[nH]c(SCC(=O)c3cc(C(C)(C)C)c(O)c(C(C)(C)C)c3)nc2c1` [Compound 20], the “chemorepulsion class mark in Tables 1-4” value is 20* (Compounds that showed chemorepulsion that was at least 3-fold greater than media). Turning to `COc1ccc(C(=O)CSc2nc3cc(OC)ccc3[nH]2)cc1` [Compound 21], the “chemorepulsion class mark in Tables 1-4” value is recorded as 21* (Compounds that showed chemorepulsion that was at least 3-fold greater than media). For `COc1ccc2[nH]c(SCc3ccc(Cl)c(Cl)c3)nc2c1` [Compound 22], the “chemorepulsion class mark in Tables 1-4” value is recorded as 22* (Compounds that showed chemorepulsion that was at least 3-fold greater than media). For the compound `COc1ccc2[nH]c(SCC(=O)c3ccc4c(c3)OCO4)nc2c1` [Compound 23], the “chemorepulsion class mark in Tables 1-4” value was 23* (Compounds that showed chemorepulsion that was at least 3-fold greater than media). With `COc1ccc(NC(=O)CSc2nc3cc([N+](=O)[O-])ccc3[nH]2)c(OC)c1` [Compound 33], the “chemorepulsion class mark in Tables 1-4” value is given as 33* (Compounds that showed chemorepulsion that was at least 3-fold greater than media). As for `COc1ccc2[nH]c(SCC(=O)Nc3ccc4c(c3)OCO4)nc2c1` [Compound 36], the “chemorepulsion class mark in Tables 1-4” value is reported as 36* (Compounds that showed chemorepulsion that was at least 3-fold greater than media). `COc1ccc2[nH]c(SCC(=O)Nc3cc(Cl)ccc3OC)nc2c1` [Compound 37]: the “chemorepulsion class mark in Tables 1-4” value was 37* (Compounds that showed chemorepulsion that was at least 3-fold greater than media).

In the case of `COc1ccc2[nH]c(SCC(=O)Nc3ccc(Br)cc3)nc2c1` [Compound 38], the “chemorepulsion class mark in Tables 1-4” value was 38* (Compounds that showed chemorepulsion that was at least 3-fold greater than media).

Consider `COc1ccc2[nH]c(SCC(=O)Nc3ccccc3Br)nc2c1` [Compound 39], for which the “chemorepulsion class mark in Tables 1-4” value is 39* (Compounds that showed chemorepulsion that was at least 3-fold greater than media).

As to `COc1ccc2[nH]c(SCC(=O)Nc3ccc(Cl)cc3)nc2c1` [Compound 40], the “chemorepulsion class mark in Tables 1-4” value is 40* (Compounds that showed chemorepulsion that was at least 3-fold greater than media). For the compound `COc1ccc2[nH]c(SCC(=O)Nc3ccccc3[N+](=O)[O-])nc2c1` [Compound 41], the “chemorepulsion class mark in Tables 1-4” value is on record as 41* (Compounds that showed chemorepulsion that was at least 3-fold greater than media).

`COc1ccc2[nH]c(SCC(=O)Nc3ccc([N+](=O)[O-])cc3)nc2c1` [Compound 42]: the “chemorepulsion class mark in Tables 1-4” value is recorded as 42* (Compounds that showed chemorepulsion that was at least 3-fold greater than media). For the compound `COc1ccc2[nH]c(SCC(=O)Nc3cc(NC(=O)CSc4nc5cc(OC)ccc5[nH]4)cc(C(=O)O)c3)nc2c1` [Compound 43], the “chemorepulsion class mark in Tables 1-4” value is recorded as 43* (Compounds that showed chemorepulsion that was at least 3-fold greater than media). For `COc1ccc2[nH]c(SCc3cccc(I)c3)nc2c1` [Compound 45], the “chemorepulsion class mark in Tables 1-4” value is 45* (Compounds that showed chemorepulsion that was at least 3-fold greater than media). Take `COc1ccc2[nH]c(Sc3c(-c4ccccc4)c4cc(Cl)ccc4[nH]c3=O)nc2c1` [Compound 54]: the “chemorepulsion class mark in Tables 1-4” value is recorded as 54* (Compounds that showed chemorepulsion that was at least 3-fold greater than media).

Take `CCOc1ccc2[nH]c(SCC(=O)Nc3ccc(O)c(C(=O)O)c3)nc2c1` [Compound 58]: the “chemorepulsion class mark in Tables 1-4” value is given as 58* (Compounds that showed chemorepulsion that was at least 3-fold greater than media). Same read-out and setting: the same measure for `O=C(CSc1nc2cc([N+](=O)[O-])ccc2[nH]1)Nc1ccc(O)c(C(=O)O)c1` [Compound 59]: 59* (Compounds that showed chemorepulsion that was at least 3-fold greater than media). Regarding `CCOc1ccc2[nH]c(SCC(=O)Nc3nccs3)nc2c1` [Compound 60], the “chemorepulsion class mark in Tables 1-4” value is 60* (Compounds that showed chemorepulsion that was at least 3-fold greater than media). For `CCOc1ccc2[nH]c(SCC(=O)N(c3ccccc3)C(C)C)nc2c1` [Compound 62], the “chemorepulsion class mark in Tables 1-4” value is 62* (Compounds that showed chemorepulsion that was at least 3-fold greater than media).

As for `CCOc1ccc2[nH]c(SCC(=O)Nc3ccccc3)nc2c1` [Compound 63], the “chemorepulsion class mark in Tables 1-4” value was 63* (Compounds that showed chemorepulsion that was at least 3-fold greater than media). Regarding `COc1ccc2[nH]c(SCC(=O)Nc3ccon3)nc2c1` [Compound 79], the “chemorepulsion class mark in Tables 1-4” value is listed as 79* (Compounds that showed chemorepulsion that was at least 3-fold greater than media). For the compound `COc1ccc2[nH]c(SCc3cnc(C)nc3N)nc2c1` [Compound 80], the “chemorepulsion class mark in Tables 1-4” value is reported as 80* (Compounds that showed chemorepulsion that was at least 3-fold greater than media). For `COc1ccc2[nH]c(Sc3ccc(C(F)(F)F)cc3[N+](=O)[O-])nc2c1` [Compound 88], the “chemorepulsion class mark in Tables 1-4” value is listed as 88* (Compounds that showed chemorepulsion that was at least 3-fold greater than media).

Take `COc1ccc2[nH]c(Sc3c(-c4ccccc4)c4ccc(Cl)cc4[nH]c3=O)nc2c1` [Compound 99]: the “chemorepulsion class mark in Tables 1-4” value is listed as 99* (Compounds that showed chemorepulsion that was at least 3-fold greater than media). For `COc1ccc2[nH]c(N3CCCC(C(=O)NCCc4ccc(Cl)cc4)C3)nc2c1` (stereo not shown) [Compound 128], the “chemorepulsion class mark in Tables 1-4” value is given as 128* (Compounds that showed chemorepulsion that was at least 3-fold greater than media).

With `O=[N+]([O-])c1ccc2nc(-c3cn4ccsc4n3)sc2c1` [Compound 132], the “chemorepulsion class mark in Tables 1-4” value is 132* (Compounds that showed chemorepulsion that was at least 3-fold greater than media). For `CSc1nc2cc(Cl)c(Oc3ccc4ccccc4c3Br)cc2[nH]1` [Compound 136], the “chemorepulsion class mark in Tables 1-4” value is 136* (Compounds that showed chemorepulsion that was at least 3-fold greater than media). With `COc1ccc2[nH]c(N3CCCC(C(=O)NCCc4ccccc4)C3)nc2c1` (stereo not shown) [Compound 157], the “chemorepulsion class mark in Tables 1-4” value is reported as 157* (Compounds that showed chemorepulsion that was at least 3-fold greater than media).

Still in this assay, the particulars now being: neutrophils, omeprazole 0.1, 1, 10 and 100 uM, FIG. 2.
Take `COc1ccc2[nH]c([S+]([O-])Cc3ncc(C)c(OC)c3C)nc2c1` (stereo not shown) [omeprazole, reference compound]: the “chemorepulsion relative to cells treated with media alone” value is on record as “greater than 5 fold”.

Still in this assay, the particulars now being: neutrophils, rabeprazole at 106 uM, FIG. 59.
As to `COCCCOc1ccnc(C[S+]([O-])c2nc3ccccc3[nH]2)c1C` (stereo not shown) [rabeprazole, reference compound], the chemorepulsion over media entry was “greater than 3 fold”.

These data come from patent US20100093747A1, “METHOD OF INDUCING NEGATIVE CHEMOTAXIS” (priority 2008, published 2010).
